Measurements reported in patent US20250051703A1, “EGG OPENER, EX OVO TUMOR XENOGRAFT METHOD, THERAPEUTIC COMPOUND ASSAY, THERAPEUTIC COMPOUND TESTING METHOD VIA EX OVO QUAIL EGG XENOGRAFT ASSAY” (CHILDREN'S CANCER THERAPY DEVELOPMENT INSTITUTE, priority 2021, published 2025).
Entries after “also recorded” stand apart in the source; their conditions may differ.

Experiments:
[1] = tested on: murine glioma cell line GL261; conditions: literature (Yang, et al.); cited from earlier work
[2] = tested on: murine glioma cell line GL261; conditions: literature (Yang, et al.); cited from earlier work; remark: listed apart in the source
[3] = tested on: U48484 mouse rhabdomyosarcoma cells; test: Quail tumor assay: U48484 tumor module xenograft on quail CAM, bioluminescence; format: in vivo
Procedure: U48484 mouse rhabdomyosarcoma cells were cultured, trypsinized and added to two different vials of hydrogel making a concentration of 10^6 cells per 50 μl. BEZ235 (cat #S1009, Selleck Chemicals, Houston, TX) in a solution of 0.1% DMF (cat #TS-20673, Thermo Fisher Scientific) in PBS was added to 10^6 U48484 mouse rhabdomyosarcoma cells mixed with 50 μl hydrogel for a final concentration of 500 nM BEZ235. For untreated eggs, 0.1% DMF in PBS was used as a control. 50 μl of cells/hydrogel/drug mixture were added to each scaffold and incubated for approximately 30-45 minutes at 37° C. and 100% humidity. As detailed above, a superficial injury was created on the chorioallantoic membrane and tumor module containing either drug or control was placed on top. Quail bearing tumor module models were incubated for 72 hours. Add the end of the incubation, 100 μl of PBS containing 1.5 mg of luciferin-d (cat #122799, PerkinElmer) was added to the 3D scaffold, incubated for 10 minutes in the dark, and bioluminescence was measured using a Fluorchem instrument (ProteinSimple, San Jose, CA). The quail were imaged with an 8 minute exposure for total light emission.
u48484 is a murine rhabdomyosarcoma cell line constitutively expressing firefly luciferase (available from the originating laboratory as described in Aslam et al, PDGFRβ reverses EphB4 signaling in alveolar rhabdomyosarcoma, Proc Natl Acad Sci USA. 2014 Apr. 29; 111 (17): 6383-8. doi: 10.1073/pnas. 1403608111; PMID 24733895), which is used to form a CAM xenograft as per the invention herein except being a non-human tumor cell line.
U48484 mouse rhabdomyosarcoma cells were cultured, trypsinized and added to two different vials of hydrogel making a concentration of 10^6 cells per 50 μl. […] Add the end of the incubation, 100 μl of PBS containing 1.5 mg of luciferin-d (cat #122799, Perkin Elmer) was added to the 3D scaffold, incubated for 10 minutes in the dark, and bioluminescence was measured using a Fluorchem instrument (Protein Simple, San Jose, CA). […]

[4] = tested on: Hep3B human hepatocellular carcinoma; conditions: literature (Li, et al.); cited from earlier work
[5] = tested on: HepG2 xenograft CAM assay; test: Quail dose response assay (ex ovo CAM xenograft, osmotic bead drug depot), HepG2; format: in vivo, human; conditions: for dose-response in HepG2 xenograft CAM assay: FIGS. 18H and 18I, radiance
Procedure: (§1) The tumor modules for dose response assay are generated as described above but with 5×10^5 cells per 50 μl. Drug was dissolved in DMSO for all levels to a final tumor module concentration of vehicle control, 0.3 μM, 3 μM, or 30 μM with n=6. P-10 beads (catalog #1504144, Bio-Rad, Hercules, CA, USA) are soaked in PBS at the concentration of the modules for four hours at room temperature. Approximately 50 μl of bead solution is added to a 9.5×1.5 mm plastic ring placed on top of the tumor module forming a drug depot. The drug depot provided a constant source of drug keeping the tumor module at a constant concentration despite drug leaving the module for the quail, as shown in FIG. 17. The IR820 has an exponential range between 0.001 and 1 μM as shown in the dose-response curve of FIG. 17A in lumens v. IR820 concentration.
(§2) The quail with tumor module models and drug depots are incubated for 72 hours. Afterwards, 150 μl of 15 mg/ml luciferin (cat #122799, Perkin Elmer) in PBS is added to the modules incubated for 10 minutes and then imaged on an IVIS Lumina (PerkinElmer) for between 15 seconds (for cell lines HepG2) or 1 minute (for cell lines HB243 and HB282).
Validation assays are conducted to correlate murine and human cell lines across a range of biologicals and small molecule drugs for pediatric and adult cell lines. B16F10 is a murine melanoma cell line constitutively expressing firefly luciferase (available as cat #BW124734 from Perkin-Elmer, Akron, Ohio USA), which is used to form a CAM xenograft as per the invention herein with the difference of being an adult-type cancer cell line, and radiance reflecting cell viability as impaired by drug. In FIGS. 18A-18J, to analyze drug efficacy on tumor cells, luciferin is added to the scaffold and then imaged by a CCD camera to determine the total xenograft cell viability, with the results indicated as radiance (e.g., steradians/cm^2/s) on the Y axis. See also FIG. 1 at Step 14. […]

[6] = tested on: B16F10 murine melanoma cell line; test: B16F10 xenograft CAM assay, radiance; format: in vivo; conditions: FIG. 18A
Procedure: Validation assays are conducted to correlate murine and human cell lines across a range of biologicals and small molecule drugs for pediatric and adult cell lines. B16F10 is a murine melanoma cell line constitutively expressing firefly luciferase (available as cat #BW124734 from Perkin-Elmer, Akron, Ohio USA), which is used to form a CAM xenograft as per the invention herein with the difference of being an adult-type cancer cell line, and radiance reflecting cell viability as impaired by drug. In FIGS. 18A-18J, to analyze drug efficacy on tumor cells, luciferin is added to the scaffold and then imaged by a CCD camera to determine the total xenograft cell viability, with the results indicated as radiance (e.g., steradians/cm^2/s) on the Y axis. See also FIG. 1 at Step 14.

[7] = tested on: e10 quail embryo liver and kidney; conditions: Japanese quail, in vivo
Procedure: Cediranib (Cat #S1017, Selleck Chemicals LLC, Houston, TX) and erlotinib (Cat #S7786) were purchased from Selleck Chemicals and reconstituted in dimethyl sulfoxide (DMSO) following the manufacturers recommendations and diluted to 10 mM stock concentration.
Fertilized Japanese quail eggs were incubated and plated as described previously. Quail were allowed to grow ex ovo in six-well plates until the quail had passed the patterning phase (e8 based on plating date). Each experimental arm was assigned n=4 viable quail and treated with one of four experimental conditions: vehicle, cediranib, ertoltinib, and cediranib+erlotinib. […] Stock concentrations were diluted in phosphate-buffered saline (PBS) to the respective target concentrations and to a final volume of 25 μL per agent. DMSO for vehicle was set at the DMSO volume used in the cediranib+erlotinib combination (8.4 μL DMSO).
Vehicle and diluted agents were subsequently applied dropwise to the quail chorioallantoic membrane. Quail were photographed at 0 hours, 24 hours, and 48 hours.

[8] = cited from earlier work
[9] = tested on: BT474 human breast cancer cell line; test: BT474 xenograft CAM assay, radiance; format: in vivo; conditions: FIGS. 18C and 18D
[10] = tested on: HB243 hepatoblastoma cell line; test: In vitro % viability dose-response, HB243; format: cell-based, human; conditions: n=4 replicates per point
[11] = tested on: HB282 hepatoblastoma cell line; test: In vitro % viability dose-response, HB282; format: cell-based; conditions: Homo sapiens, n=4 replicates per point
[12] = tested on: HepG2 hepatoblastoma cell line; test: In vitro % viability dose-response, HepG2; format: cell-based; conditions: Homo sapiens, n=4 replicates per point
HB243 CAM xenograft = test: Quail dose response assay (ex ovo CAM xenograft, osmotic bead drug depot), HB243; format: in vivo; conditions: Homo sapiens, osmotic bead delivery, 72 hours, read-out: 50% tumor growth inhibition (ex ovo IC50), HB243
Procedure: as §1, §2
(§3) The tumor modules for dose response assay were generated as described above but with 5×10^5 cells per 50 μl. […]

HB282 CAM xenograft = test: Quail dose response assay (ex ovo CAM xenograft, osmotic bead drug depot), HB282; format: in vivo; conditions: Homo sapiens, osmotic bead delivery, 72 hours, read-out: 50% tumor growth inhibition (ex ovo IC50), HB282
Procedure: as §1, §2, §3

HB243 murine xenografts = test: Murine in vivo xenograft study, HB243; set-up: species or system mouse
Procedure: All studies in mice were performed after receiving approval from the institutional animal care and use committee (IACUC) at Children's Cancer Therapy Development Institute and in accordance with ARRIVE Guidelines. HepG2 and HB243 were suspended in Matrigel and injected into n=10 eight week-old female nod scid gamma mice per cell line xenograft (Charles River, Hollister, CA, NOD.CB17-Prkde^scid/NCrCrl) with 2×10^6 cells per 100 μl injection. […] Volasertib (cat #S2235, Selleck Chem) was suspended in 3.75% DMSO and corn oil (cat #C8267, Sigma-Aldrich, St Louis, MO) at a concentration of 1.5 mg/ml with 100 μl injected intraperitoneally with mice chosen for the drug and control group randomly selected to minimize selection bias. The mice were imaged by intraperitoneal injection of luciferin-d according to manufacturer's instructions. The tumors were measured using calipers every 3 days and the equation for volume was […]. At the study end or if the tumors reached 1.5 cc the tumors were removed and measured.
For the murine in vivo xenograft study survival analysis, the tumor endpoint volumes for time-to-event (TTE) analysis were set at 0.75 cc and were collected to 1.5 cc. TTE was defined in days by selecting the day in which the tumor volume equaled or surpassed 0.75 cc. […] The Kaplan-Meier survival plot represents the percentage of animals surviving at different time points during the study. These percentages were generated from the TTE data using GraphPad Prism 9.0 software (Graphpad Software, San Diego, CA, https://www.graphpad.com/scientific-software/prism/). Survival curve comparisons were analyzed using the Mantel-Cox and Gehan-Breslow-Wilcox tests (95% CI) through Graph Pad Prism 9.0 software. For the quail xenograft assay, significance was determined by an unpaired two-tailed t-test with Welch's correction and a p-value less than 0.05 was considered statistically significant. Error bars represent±standard error of the mean (SEM).

HepG2 murine xenografts = test: Murine in vivo xenograft study, HepG2; set-up: species or system mouse; conditions: FIG. 16F
Procedure: All studies in mice were performed after receiving approval from the institutional animal care and use committee (IACUC) at Children's Cancer Therapy Development Institute and in accordance with ARRIVE Guidelines. HepG2 and HB243 were suspended in Matrigel and injected into n=10 eight week-old female nod scid gamma mice per cell line xenograft (Charles River, Hollister, CA, NOD.CB17-Prkde^scid/NCrCrl) with 2×10^6 cells per 100 μl injection. […] The tumors were measured using calipers every 3 days and the equation for volume was V=L×W×H×0.5(π/6). At the study end or if the tumors reached 1.5 cc the tumors were removed and measured.
For the murine in vivo xenograft study survival analysis, the tumor endpoint volumes for time-to-event (TTE) analysis were set at 0.75 cc and were collected to 1.5 cc. […] Survival curve comparisons were analyzed using the Mantel-Cox and Gehan-Breslow-Wilcox tests (95% CI) through Graph Pad Prism 9.0 software. For the quail xenograft assay, significance was determined by an unpaired two-tailed t-test with Welch's correction and a p-value less than 0.05 was considered statistically significant. […]

## Cc1sc2c(c1C)C(c1ccc(Cl)cc1)=N[C@@H](CC(=O)Nc1ccc(OCCOCCOCCOCCNc3cccc4c3C(=O)N(C3CCC(=O)NC3=O)C4=O)cc1)c1nnc(C)n1-2 (stereo partly shown) [ARV-825]
[1]
  efficacy against GL261 in vitro: showing efficacy
[2]
  efficacy against GL261 in vivo: showing efficacy

## Cn1c(=O)n(-c2ccc(C(C)(C)C#N)cc2)c2c3cc(-c4cnc5ccccc5c4)ccc3ncc21 [BEZ235]
[3]; FIG. 14, unpaired two-tailed t-test with Welch's correction
  significance p, treated (n=6) vs vehicle control (n=4), tumor bioluminescence: 0.0048
[3]; FIG. 18J
  inhibition of tumor growth in u48484 xenograft CAM assay: drug-related inhibition of tumor growth can be observed
[3]; Mus musculus, Rhabdomyosarcoma cell, 500 nM in the hydrogel volume, 72 hours on CAM, read-out: reduction in U48484 tumor module bioluminescence (tumor cell viability)
  inhibition at 0.5 µM: 20%

## Cc1sc2c(c1C)C(c1ccc(Cl)cc1)=N[C@@H](CC(=O)OC(C)(C)C)c1nnc(C)n1-2 [JQ1]
[4]
  efficacy against Hep3B in vivo: showed efficacy

## Cc1ncsc1-c1ccc(CNC(=O)[C@@H]2C[C@@H](O)CN2C(=O)[C@@H](NC(=O)COCCOCCOCCNC(=O)C[C@@H]2N=C(c3ccc(Cl)cc3)c3c(sc(C)c3C)-n3c(C)nnc32)C(C)(C)C)cc1 [MZ1]
[5]
  dose-response in HepG2 xenograft CAM assay: dose-response relationship can be observed
[6]
  dose-response in B16F10 xenograft CAM assay: dose-response relationship exists

## COc1cc2c(Oc3ccc4[nH]c(C)cc4c3F)ncnc2cc1OCCCN1CCCC1 [cediranib]
[7]
  remaining viable quail 48 hours after dosing: 3
[8]
  maximum clinically-achievable serum concentrations (Cmax) in human patients: 42 ng/mL

## C#Cc1cccc(Nc2ncnc3cc(OCCOC)c(OCCOC)cc23)c1 [erlotinib]
[7]
  remaining viable quail 48 hours after dosing: 3
[8]
  maximum clinically-achievable serum concentrations (Cmax) in human patients: 1300 ng/mL

## CS(=O)(=O)CCNCc1ccc(-c2ccc3ncnc(Nc4ccc(OCc5cccc(F)c5)c(Cl)c4)c3c2)o1 [lapatinib]
[9]
  dose-response in BT474 xenograft CAM assay: dose-response relationship

## CC[C@@H]1C(=O)N(C)c2cnc(Nc3ccc(C(=O)N[C@H]4CC[C@H](N5CCN(CC6CC6)CC5)CC4)cc3OC)nc2N1C(C)C [volasertib]
[10]; Homo sapiens
  IC50: 191 nM
[10]
  IC50: 282 nM
[11]
  IC50: 916 nM
[12]
  IC50: 508 nM
HB243 CAM xenograft
  IC50: 1460 nM
HB282 CAM xenograft
  IC50: 1040 nM
[5]; FIG. 16D, CAM xenograft, osmotic bead delivery, 72 hours
  sensitivity of HepG2 ex ovo: insensitive at any concentration
[5]
  dose-response in HepG2 xenograft CAM assay: dose-response relationship can be observed
HB243 murine xenografts; FIG. 16E
  tumor growth of HB243 mouse xenograft relative to the control group: statistically significant reduction in growth
HB243 murine xenografts; HB243 mouse xenograft, vs vehicle
  treatment mice surviving to the endpoint longer than control (average): 4.5 days
HB243 murine xenografts; n=4, event = tumor volume equal or greater than 0.75 cc, intraperitoneal
  survival of HB243 murine xenografts, treatment vs control, p (Mantel-Cox test): 0.031
HepG2 murine xenografts
  survival / response of HepG2 mouse xenograft: no increase in survival; also recorded: continued to be resistant
